Measured values as given in ChEMBL document CHEMBL2331164, “Aspulvinones from a mangrove rhizosphere soil-derived fungus Aspergillus terreus Gwq-48 with anti-influenza A viral (H1N1) activity” (Bioorg Med Chem Lett, 2013).
In brackets after ≈: the same amount, converted by molar mass.

Columns and labels:
[1] = Cytotoxicity against MDCK cells assessed as cell viability after 72 hrs by MTT assay; type: cell-based, Canis lupus familiaris; conditions: dog
[2] = Cytotoxicity against human A549 cells assessed as cell viability after 72 hrs by MTT assay; type: cell-based
Influenza A virus = experiment: microbe, parasite or virus in culture; conditions: A/Puerto Rico/8/1934(H1N1), MDCK, 48 h
[3] = target: Neuraminidase (Influenza A virus (A/Puerto Rico/8/1934(H1N1))) (UniProt P03468); experiment: (§1) Inhibition of inactivated Influenza A virus (A/Puerto Rico/8/1934(H1N1)) neuraminidase using MUNANA as substrate incubated for 60 mins prior to substrate addition measured after 45 mins by fluorescence assay
[4] = target: Neuraminidase (Influenza A virus (A/Puerto Rico/8/1934(H1N1)), UniProt P03468); experiment: as §1
[5] = target: Neuraminidase (Influenza A virus (A/Puerto Rico/8/1934(H1N1))) (UniProt P03468); experiment: Inhibition of inactivated Influenza A virus (A/Puerto Rico/8/1934(H1N1)) neuraminidase using MUNANA as substrate at 100 ug/mL incubated for 60 mins prior to substrate addition measured after 45 mins by fluorescence assay relative to control

Neuraminidase (Influenza A virus (A/Puerto Rico/8/1934(H1N1))), sequence (P03468 whole entry): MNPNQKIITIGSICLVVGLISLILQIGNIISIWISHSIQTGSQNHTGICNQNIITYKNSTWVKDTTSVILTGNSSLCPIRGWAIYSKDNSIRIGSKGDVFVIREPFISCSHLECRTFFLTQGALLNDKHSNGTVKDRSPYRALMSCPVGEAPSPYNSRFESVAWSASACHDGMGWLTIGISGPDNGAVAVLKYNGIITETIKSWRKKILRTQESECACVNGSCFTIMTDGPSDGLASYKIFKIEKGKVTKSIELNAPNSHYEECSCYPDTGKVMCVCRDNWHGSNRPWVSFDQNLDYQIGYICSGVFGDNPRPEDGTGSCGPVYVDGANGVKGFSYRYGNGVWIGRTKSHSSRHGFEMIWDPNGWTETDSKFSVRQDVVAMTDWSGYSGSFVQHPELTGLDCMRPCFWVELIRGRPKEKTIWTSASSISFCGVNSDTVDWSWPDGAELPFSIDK
Neuraminidase (Influenza A virus (A/Puerto Rico/8/1934(H1N1)), UniProt P03468), sequence (P03468 whole entry): as above

Compound	CC50 at 72 h [1]	CC50 at 72 h [2]	IC50 (Influenza A virus)	inhibition [3]	IC50 [4]	inhibition [5]
O=C1O/C(=C\c2ccc(O)cc2)C(O)=C1c1ccc(O)cc1 [ASPULVINONE E]	> 250 mg/L	> 250 mg/L	56.9 mg/L (≈ 192 µM)	–	–	–
O=C1O/C(=C/c2ccc(O)cc2)C(O)=C1c1ccc(O)cc1 [ISOASPULVINONE E]	> 250 mg/L	> 250 mg/L	32.3 mg/L (≈ 109 µM)	Dose-dependent effect	210 µM	60%
O=C1O/C(=C(/C(=O)O)c2ccccc2)C(O)=C1c1ccccc1 [PULVIC ACID]	> 250 mg/L	> 250 mg/L	29.1 mg/L (≈ 94.4 µM)	–	–	–
CC(=O)N[C@H]1[C@H]([C@H](O)[C@H](O)CO)OC(C(=O)O)=C[C@@H]1NC(=N)N [ZANAMIVIR]	–	–	0.0284 mg/L (≈ 0.0855 µM)	–	–	–
